# Columns and labels:
# Assay type in all cases: cell-based
# [1] = system: Chrysosporium keratinophilum; test: Agar plate disc-diffusion, antifungal inhibition zone; conditions: DMSO control zone subtracted; for inhibition zone, Chrysosporium keratinophilum, A: A = concentration of comp. = 10,000 μL; for inhibition zone, Chrysosporium keratinophilum, B: B = concentration of comp. = 30.000 μL; for inhibition zone, Chrysosporium keratinophilum, C: C = concentration of comp. = 50,000 μL
# Procedure: (§1) The agar plate disc-diffusion method was applied. Sterilized filter papers (6 mm in diameter) were wetted with 10 μL of a solution of 2-ethoxy[4,3:6,4-terpyridine]-3-carbonitrile (4) and 2-methoxy[4,3:6,4-terpyridine]-3-carbonitrile (5) to be tested, containing […], and the discs were allowed to air dry. The discs were then placed onto the surface of agar plates (nutrient agar for bacteria and Sabouraud's dextrose agar for fungi) seeded with the test organism. Each plate contained 15 mL of the agar medium, previously seeded with 0.2 mL of the broth culture of each organism pregrown for 18 hours. The plates were incubated at 37° C. for 48 h, and 72 h for fungi. The inhibition zones were measured in mm. Discs impregnated with DMSO were used as a control, and its inhibition zone was subtracted from the tested compound actual inhibition zone.
# Aspergillus flavus = test: as above; conditions: DMSO control zone subtracted; for inhibition zone, Aspergillus flavus, A: A = concentration of comp. = 10,000 μL; for inhibition zone, Aspergillus flavus, B: B = concentration of comp. = 30.000 μL; for inhibition zone, Aspergillus flavus, C: C = concentration of comp. = 50,000 μL
# Procedure: as §1
# Staphylococcus aureus = test: Agar plate disc-diffusion, antibacterial inhibition zone; conditions: DMSO control zone subtracted; for inhibition zone, Staphylococcus aureus, A: A = concentration of comp. = 10,000 μL; for inhibition zone, Staphylococcus aureus, B: B = concentration of comp. = 30.000 μL; for inhibition zone, Staphylococcus aureus, C: C = concentration of comp. = 50,000 μL
# Procedure: as §1
# Escherichia coli = test: as above; conditions: DMSO control zone subtracted; for inhibition zone, Escherichia coli, A: A = concentration of comp. = 10,000 μL; for inhibition zone, Escherichia coli, B: B = concentration of comp. = 30.000 μL; for inhibition zone, Escherichia coli, C: C = concentration of comp. = 50,000 μL
# Procedure: as §1
# Pseudomonas aeruginosa = test: as above; conditions: DMSO control zone subtracted; for inhibition zone, Pseudomonas aeruginosa, A: A = concentration of comp. = 10,000 μL; for inhibition zone, Pseudomonas aeruginosa, B: B = concentration of comp. = 30.000 μL; for inhibition zone, Pseudomonas aeruginosa, C: C = concentration of comp. = 50,000 μL
# Procedure: as §1
# Bacillus Cereus = test: as above; conditions: DMSO control zone subtracted; for inhibition zone, Bacillus Cereus, A: A = concentration of comp. = 10,000 μL; for inhibition zone, Bacillus Cereus, B: B = concentration of comp. = 30.000 μL; for inhibition zone, Bacillus Cereus, C: C = concentration of comp. = 50,000 μL
# Procedure: as §1
Structure (SMILES),"inhibition zone, Chrysosporium keratinophilum, A [1]","inhibition zone, Chrysosporium keratinophilum, B [1]","inhibition zone, Chrysosporium keratinophilum, C [1]","inhibition zone, Aspergillus flavus, A (Aspergillus flavus)","inhibition zone, Aspergillus flavus, B (Aspergillus flavus)","inhibition zone, Aspergillus flavus, C (Aspergillus flavus)","inhibition zone, Staphylococcus aureus, A (Staphylococcus aureus)","inhibition zone, Staphylococcus aureus, B (Staphylococcus aureus)","inhibition zone, Staphylococcus aureus, C (Staphylococcus aureus)","inhibition zone, Escherichia coli, A (Escherichia coli)","inhibition zone, Escherichia coli, B (Escherichia coli)","inhibition zone, Escherichia coli, C (Escherichia coli)","inhibition zone, Pseudomonas aeruginosa, A (Pseudomonas aeruginosa)","inhibition zone, Pseudomonas aeruginosa, B (Pseudomonas aeruginosa)","inhibition zone, Pseudomonas aeruginosa, C (Pseudomonas aeruginosa)","inhibition zone, Bacillus Cereus, A (Bacillus Cereus)","inhibition zone, Bacillus Cereus, B (Bacillus Cereus)","inhibition zone, Bacillus Cereus, C (Bacillus Cereus)"
"CCOc1nc(-c2ccncc2)cc(-c2cccnc2)c1C#N [Compound 4, 2-ethoxy[4,3:6,4-terpyridine]-3-carbonitrile]",26 mm,31 mm,39 mm,30 mm,34 mm,41 mm,19 mm,23 mm,33 mm,33 mm,41 mm,49 mm,28 mm,34 mm,41 mm,27 mm,34 mm,39 mm
"COc1nc(-c2ccncc2)cc(-c2cccnc2)c1C#N [Compound 5, 2-methoxy[4,3:6,4-terpyridine]-3-carbonitrile]",27 mm,30 mm,46 mm,19 mm,24 mm,30 mm,23 mm,28 mm,37 mm,32 mm,39 mm,42 mm,26 mm,32 mm,40 mm,32 mm,36 mm,41 mm
